Assay [1] addresses T1, BACE-1 enzyme (Homo sapiens, UniProt P56817).
T1 construct: purchased R & D Systems 931AS
The assay can be described thus: BACE Fluorescence Resonance Energy Transfer (FRET) Assay. It is filed as biochemical. Conditions: pH 4-4.5, 30 min pre-incubation, about 1.5 hours reaction, asterisk = mean. A digest of the protocol: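 BACE-1 enzyme pre-incubated 30 minutes with compound (7.5% DMSO) in 50 mM sodium acetate pH 4-4.5 with CHAPS, TritonX-100, EDTA. Rhodamine-quenched peptide substrate cleavage ran about 1.5 hours at room temperature; fluorescence read at 540/585 nm, giving IC50 or percent inhibition at one concentration.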

Assay [2] has as its system Aβ1-40 secreted from HEK293 cells stably expressing wildtype human APP695 protein (HEK-APPwt cells); proteolytic activity of BACE. Nature of the assay: Aβ Cell Based Assay (Aβ1-40 secretion, ELISA). Conditions: 6 hours incubation, reduction of Aβ1-40 secretion, asterisk = mean. Here is the method:
(§1) Aβ Cell Based Assay Procedure
(§2) In the following assay, the proteolytic activity of BACE in cells exposed to varying concentrations of a compound of interest is measured by observing the amount of Aβ1-40 secreted from HEK293 cells (Human Embryonic Kidney epithelial cell line) stably expressing wildtype human APP695 protein (HEK-APPwt cells).
(§3) HEK-APPwt cells were grown in high glucose DMEM (Dulbecco's Modified Eagles Medium SIGMA Cat. #D5796) supplemented with 25 mM HEPES (4-(2-hydroxyethyl)-1-piperazineethanesulfonic acid) (pH 7.4) (Invitrogen Cat. #15630-114), 0.1 mM NEAA (Non-essential Amino Acids) (BioWhittaker Cat. #13-114E), 10% fetal bovine serum (SIGMA Cat. #F4135) and 250 μg/mL hygromycin (Invitrogen Cat. #10687-010) in T-225 flasks at 37° C. with 5% CO2 and humidity control.
(§4) Test compounds were initially prepared in DMSO and diluted with DMEM media containing 2% FBS (Fetal bovine serum). Ten standard compound solutions were prepared having a range of concentrations. The standard compound solutions were used to determine the EC50 of the test compound. The range of concentrations chosen may depend on the compound's predicted potency.
(§5) To prepare cells for the assay, a flask containing HEK-APPwt cells were trypsinized briefly (1 mL trypsin), and once the cells detached, 4 mL of 10% FBS-DMEM was added to the flask. The detached cells were centrifuged at 900 rpm for 5 min to form a pellet.
(§6) The HEK-APPwt cell pellet was re-suspended with 10 mL DMEM media containing 2% FBS. 80 μL of the cell suspension was added to each well of a 96-well cell culture plate to give 100×10^4 cells/ml. 10 μL of a standard compound solution was added to each well of the 96-well cell culture plate followed by 10 μL of Alamar blue solution. The cells were incubated at 37° C. in a 5% CO2 incubator for 6 hours.
(§7) At the end of the incubation, the plates were removed from incubator, and the supernatant was collected. Aβ1-40 concentration in the medium was measured by using a commercial Aβ1-X ELISA kit (IBL, Japan Cat. #27729). Briefly, the ELISA plates were coated with an anti-human Aβ (N)(82E1) mouse IgG monoclonal antibody. A horseradish peroxidase conjugated anti-human Aβ11-28 mouse IgG monoclonal antibody was used for detection. The cell culture supernatant was diluted with EIA buffer+protease inhibitors (kit buffer containing protease inhibitors (1 mL PI/30 mL buffer)). A 100 μL aliquot of the diluted supernatant was added to each well of the ELISA plate and incubated for 6 hrs at 4° C. The ELISA plate was washed 8 times with phosphate buffered saline (PBS) containing 0.05% TWEEN 20.
(§8) A 100 μL of detection antibody was then added and incubated for 1 hour at 4° C. The plate was washed 8 times with PBS buffer containing 0.05% Tween 20 followed by addition of 100 μL of the chromogen tetramethylbenzidine (TMB). The plate was incubated in the dark at room temperature for about 30 min and a stop solution (1N H2SO4) was added.
(§9) The intensity of the color developed was measured at 450 nm. The optical density at 450 nm (OD450) is proportional to the concentration of human Aβ1-40 secreted by the cell. As a reference, N—[N-(3,5-difluorophenacetyl-L-alanyl)]—S-phenylglycine t-butyl ester (DAPT, a γ-secretase inhibitor) was used to indicate 100% inhibition of […]. Thus, the assay measures the ability of a compound of interest to reduce Aβ1-40 secretion. Compound potency is reported in Table 3 as the EC50 by calculating the percent inhibition at all concentration levels and the data were fit with non-linear curve fitting algorithm using GraphPad Prism.
(In general: ELISA stands for enzyme-linked immunosorbent assay.)

The nature of assay [3]: Aβ Cell Based Assay (Aβ1-40 secretion, ELISA). Set-up: species or system human. Conditions: Homo sapiens, HEK293; HEK-APPwt cells, 6 hours incubation, reduction of Aβ1-40 secretion; asterisk = mean. As for the experimental part: as §1, §2, §3, §4, §5, §6, §7, §8, §9

Structures are written as SMILES.

T1 sequence (P56817 46-457 limits assumed): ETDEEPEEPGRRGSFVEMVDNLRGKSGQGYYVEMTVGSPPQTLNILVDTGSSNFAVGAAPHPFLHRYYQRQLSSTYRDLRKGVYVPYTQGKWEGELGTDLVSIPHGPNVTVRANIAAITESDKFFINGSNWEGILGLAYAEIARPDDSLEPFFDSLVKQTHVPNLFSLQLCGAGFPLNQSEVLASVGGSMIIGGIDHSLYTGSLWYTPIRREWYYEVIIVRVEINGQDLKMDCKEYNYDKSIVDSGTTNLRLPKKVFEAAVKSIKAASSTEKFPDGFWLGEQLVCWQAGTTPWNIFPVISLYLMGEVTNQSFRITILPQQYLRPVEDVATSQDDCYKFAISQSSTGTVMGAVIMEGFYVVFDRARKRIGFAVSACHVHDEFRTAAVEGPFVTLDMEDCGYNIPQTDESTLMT

The term IC50 denotes the concentration that gives 50% inhibition. Low readings indicate inhibition by little substance, high ones a need for much substance. For the molecule `O=C(Nc1nc2cc(-c3cccc(OC(F)(F)F)c3)ccc2[nH]1)c1cn2nc(OCCO)ccc2n1` [Example 143, 6-(2-Hydroxy-ethoxy)-imidazol[1,2-b]pyridazine-2-carboxylic acid [5-(3-trifluoromethoxy-phenyl)-1H-benzoimidazol-2-yl]-amide], in assay [1], the IC50 came to 0.172 µM. In addition, in assay [2], the EC50 turned out to be 1.07 µM.
As to `O=C(Nc1nc2cc(-c3cccc(Cl)c3)ccc2[nH]1)c1cn2nc(OCCO)ccc2n1` [Example 144, 6-(2-hydroxy-ethoxy)-imidazo[1,2-b]pyridazine-2-carboxylic acid [5-(3-chloro-phenyl)-1H-benzoimidazol-2-yl]-amide], inhibition in assay [1] was half-maximal at 0.128 µM (IC50). The molecule also displayed an EC50 in assay [3] of 0.94 µM.
As for `CC(C)[C@@H](O)COc1ccc2nc(C(=O)Nc3nc4cc(-c5cc(F)cc(Cl)c5)ccc4[nH]3)cn2n1` [Example 107], in assay [1], half-maximal inhibition (IC50) was put at 0.215 µM. This molecule also registered an EC50 in assay [3] of 0.79 µM.
`C[C@H](C[C@@H](C)O)Oc1ccc2nc(C(=O)Nc3nc4cc(-c5cccc(C(F)(F)F)c5)ccc4[nH]3)cn2n1` [Example 120, 6-((1R,3R)-3-hydroxy-1-methyl-butoxy)-imidazo[1,2-b]pyridazine-2-carboxylic acid [5-(3-trifluoromethyl-phenyl)-1H-benzoimidazol-2-yl]-amide] yielded an IC50 in assay [1] of 0.455 µM. In assay [3], this molecule displayed an EC50 of 0.07 µM.
In the case of `CC1(COc2ccc3nc(C(=O)Nc4nc5cc(-c6cc(F)cc(Cl)c6)ccc5[nH]4)cn3n2)COC1` [Example 98], the IC50 in assay [1] was 0.248 µM. The molecule further gave an EC50 in assay [3] of 0.44 µM.
In turn, `CN(C)CCN(C)CCOc1ccc2nc(C(=O)Nc3nc4cc(-c5cccc(C(F)(F)F)c5)ccc4[nH]3)cn2n1` [Example 43] gave an IC50 in assay [1] of 0.335 µM. The EC50 in assay [3] was determined as 2.88 µM.
Turning to `O=C(Nc1nc2cc(-c3cccc(C(F)(F)F)c3)ccc2[nH]1)c1cn2nc(OCCN3CCOCC3)ccc2n1` [Example 27, 6-(2-Morpholin-4-yl-ethoxy)-imidazol[1,2-b]pyridazine-2-carboxylic acid [5-(3-trifluoromethyl-phenyl)-1H-benzoimidazol-2-yl]-amide], half-maximal inhibition in assay [1] (IC50) was put at 0.262 µM. The same molecule showed an EC50 in assay [3] of 0.58 µM.
In assay [1], `O=C(Nc1nc2cc(-c3cc(F)cc(Cl)c3)ccc2[nH]1)c1cn2nc(OCCN3CCCC3=O)ccc2n1` [Example 54] gave an IC50 of 0.211 µM. The EC50 in assay [3] is 0.87 µM.
For the molecule `C[C@H](O)CCOc1ccc2nc(C(=O)Nc3nc4cc(-c5cc(F)cc(Cl)c5)ccc4[nH]3)cn2n1` [Example 119], the IC50 in assay [1] came to 0.298 µM. Moreover, the EC50 in assay [3] stood at 0.77 µM.
On the same counts, the results for `O=C(Nc1nc2cc(-c3cccc(OC(F)(F)F)c3)ccc2[nH]1)c1cn2nc(OCCN3CCCC3=O)ccc2n1` [Example 31] are 0.313 µM and 2.5 µM.
The like results for `C[C@@H](O)[C@@H](C)Oc1ccc2nc(C(=O)Nc3nc4cc(-c5cc(F)cc(Cl)c5)ccc4[nH]3)cn2n1` [Example 146, 6-((1R,2R)-2-hydroxy-1-methyl-propoxy)-imidazo[1,2-b]pyridazine-2-carboxylic acid [5-(3-chloro-5-fluoro-phenyl)-1H-benzoimidazol-2-yl]-amide] were, in that order, 0.376 µM and 0.11 µM.
Take `C[C@@H](O)CCOc1ccc2nc(C(=O)Nc3nc4cc(-c5cc(F)cc(Cl)c5)ccc4[nH]3)cn2n1` [Example 118]: the half-inhibitory concentration (IC50) in assay [1] amounted to 0.318 µM. In assay [3], this molecule returned an EC50 of 1.06 µM.
The like results for `O=C(Nc1nc2cc(-c3cc(F)cc(Cl)c3)ccc2[nH]1)c1cn2nc(OCCN3CCCCCC3)ccc2n1` [Example 53] were, in that order, 0.216 µM and 2.62 µM.
As for `O=C(Nc1nc2cc(-c3cccc(C(F)(F)F)c3)ccc2[nH]1)c1cn2nc(OCCN3CCCC3=O)ccc2n1` [Example 25], half-maximal inhibition in assay [1] (IC50) was put at 0.316 µM. This molecule also yielded an EC50 in assay [3] of 1.35 µM.
For `O=C(Nc1nc2cc(-c3cccc(C(F)(F)F)c3)ccc2[nH]1)c1cn2nc(OCCN3CCCCC3)ccc2n1` [Example 46], half-maximal inhibition in assay [1] (IC50) required 0.248 µM. In assay [3], this molecule came in with an EC50 of 3.81 µM.
As to `O=C(Nc1nc2cc(-c3cc(F)cc(Cl)c3)ccc2[nH]1)c1cn2nc(OCC3(CO)CC3)ccc2n1` [Example 104], the IC50 in assay [1] was 0.277 µM. This molecule gave an EC50 in assay [3] of 0.33 µM.
As to `O=C(Nc1nc2cc(-c3cc(F)cc(Cl)c3)ccc2[nH]1)c1cn2nc(OCCCCO)ccc2n1` [Example 130], in assay [1], inhibition was half-maximal at 0.169 µM (IC50). For the same molecule, the EC50 in assay [3] amounted to 0.23 µM.
On the same counts, the results for `O=C(Nc1nc2cc(-c3cc(F)cc(Cl)c3)ccc2[nH]1)c1cn2nc(OC[C@@H]3CCCO3)ccc2n1` [Example 147, 6-[(S)-1-(Tetrahydro-furan-2-yl)methoxy]-imidazol[1,2-b]pyridazine-2-carboxylic acid [5-(3-chloro-5-fluoro-phenyl)-1H-benzoimidazol-2-yl]-amide] are 0.207 µM and 0.27 µM.
For the molecule `CN(C)CCN(C)CCOc1ccc2nc(C(=O)Nc3nc4cc(-c5cc(F)cc(Cl)c5)ccc4[nH]3)cn2n1` [Example 49], the half-maximal inhibitory concentration (IC50) in assay [1] was 0.21 µM. In addition, the EC50 in assay [3] is 1.8 µM.
In assay [1], `CN1CCN(CCOc2ccc3nc(C(=O)Nc4nc5cc(-c6cccc(C(F)(F)F)c6)ccc5[nH]4)cn3n2)CC1` [Example 41] came in with an IC50 of 0.232 µM. The EC50 in assay [3] amounted to 2.62 µM.
In the case of `C[C@H](O)[C@H](C)Oc1ccc2nc(C(=O)Nc3nc4cc(-c5cccc(C(F)(F)F)c5)ccc4[nH]3)cn2n1` [Example 101], half-maximal inhibition in assay [1] (IC50) required 0.136 µM. This molecule gave an EC50 in assay [3] of 1.17 µM.
On the same counts, the results for `C[C@H](O)COc1ccc2nc(C(=O)Nc3nc4cc(-c5cccc(OC(F)(F)F)c5)ccc4[nH]3)cn2n1` [Example 145, 6-((S)-2-hydroxy-propoxy)-imidazo[1,2-b]pyridazine-2-carboxylic acid [5-(3-trifluoromethoxy-phenyl)-1H-benzoimidazol-2-yl]-amide] are 0.15 µM and 1.09 µM.
The like results for `O=C(Nc1nc2cc(-c3cc(F)cc(Cl)c3)ccc2[nH]1)c1cn2nc(OC3COC4C(O)COC34)ccc2n1` (stereo not drawn) [Example 133] were, in that order, 0.262 µM and 0.56 µM.
Regarding `CC1(C)CCC(c2ccc3[nH]c(NC(=O)c4cn5nc(N6CCC(O)CC6)ccc5n4)nc3c2)CC1` [Example 83], the IC50 in assay [1] was determined as 0.18 µM. In assay [3], this molecule gave an EC50 of 1.47 µM.
